# Measurements taken from ChEMBL document CHEMBL1201862, “PubChem BioAssay data set” (2004).
#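 Five compound concentrations were applied to cells in 96-well plates for 48 hours; endpoints were derived by simple linear interpolation of the resulting dose-response curve. Here, GI50 denotes the concentration required for 50% inhibition of growth.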 Active and inactive are the calls of the source. Rule as the data show it: active = GI50 up to about 1.1 µM and inactive = higher.
# Key:
# Test in all cases: NCI anticancer screen, dose series, 48 h
# SW-620 = test system: SW-620
# Malme-3M = test system: Malme-3M
# MDA-N = test system: MDA-N
# HCT-15 = test system: HCT-15
# SK-MEL-5 = test system: SK-MEL-5
# EKVX = test system: EKVX
# HT-29 = test system: HT-29
# HL-60 = test system: HL-60
# UACC-257 = test system: UACC-257
# SNB-19 = test system: SNB-19
# KM12 = test system: KM12
# MOLT-4 = test system: MOLT-4
# OVCAR-8 = test system: OVCAR-8
# OVCAR-4 = test system: OVCAR-4
# HOP-62 = test system: HOP-62
# DU-145 = test system: DU-145
# 786-0 = test system: 786-0
# Hs-578T = test system: Hs-578T
# NCI-H460 = test system: NCI-H460
SMILES,GI50 (SW-620),GI50 (Malme-3M),GI50 (MDA-N),GI50 (HCT-15) [µM],GI50 (SK-MEL-5),GI50 (EKVX),GI50 (HT-29),GI50 (HL-60),GI50 (UACC-257),GI50 (SNB-19),GI50 (KM12),GI50 (MOLT-4),GI50 (OVCAR-8),GI50 (OVCAR-4),GI50 (HOP-62),GI50 (DU-145),GI50 (786-0),GI50 (Hs-578T),GI50 (NCI-H460)
c1ccc(-c2nnc(SCc3c[nH]c4ccccc34)n2-c2ccccc2)cc1,85.1 µM (inactive),> 100 µM (inactive),78 µM (inactive),45,15 µM (inactive),21.8 µM (inactive),8 µM (inactive),> 100 µM (inactive),23.8 µM (inactive),42.1 µM (inactive),65.3 µM (inactive),8.11 µM (inactive),30.7 µM (inactive),29.5 µM (inactive),19 µM (inactive),40.3 µM (inactive),31.8 µM (inactive),17.4 µM (inactive),12.1 µM (inactive)
COCC12CCC(OC)C34C5CC6(O)C(OC)CC(OC(C)=O)(C5C6OC(=O)c5ccccc5)C(C(OC)C13)C4N(C)C2 (stereo not drawn),> 100 µM (inactive),> 100 µM (inactive),> 100 µM (inactive),> 100,> 100 µM (inactive),> 100 µM (inactive),> 100 µM (inactive),83.8 µM (inactive),> 100 µM (inactive),> 100 µM (inactive),> 100 µM (inactive),> 100 µM (inactive),> 100 µM (inactive),> 100 µM (inactive),> 100 µM (inactive),> 100 µM (inactive),> 100 µM (inactive),> 100 µM (inactive),> 100 µM (inactive)
Cc1cc(C)n(-c2nc(C)c(CCO)c(=O)[nH]2)n1,> 100 µM (inactive),> 100 µM (inactive),> 100 µM (inactive),> 100,> 100 µM (inactive),> 100 µM (inactive),> 100 µM (inactive),> 100 µM (inactive),> 100 µM (inactive),> 100 µM (inactive),> 100 µM (inactive),> 100 µM (inactive),> 100 µM (inactive),> 100 µM (inactive),> 100 µM (inactive),> 100 µM (inactive),> 100 µM (inactive),> 100 µM (inactive),> 100 µM (inactive)
O=[N+]([O-])C(=C1NCCN1)/C(Cl)=C(\Cl)Br,13.5 µM (inactive),36.9 µM (inactive),34.5 µM (inactive),4.98,51.9 µM (inactive),> 43.4 µM (inactive),30.1 µM (inactive),10.6 µM (inactive),> 49.8 µM (inactive),> 100 µM (inactive),> 100 µM (inactive),22.3 µM (inactive),40.3 µM (inactive),46.5 µM (inactive),> 100 µM (inactive),> 100 µM (inactive),17.6 µM (inactive),> 100 µM (inactive),51.6 µM (inactive)
CN(C)CCNc1nc(-c2ccc3ccccc3c2)nc2[nH]cnc12,11.4 µM (inactive),4.51 µM (inactive),10.7 µM (inactive),5.82,10.7 µM (inactive),4.55 µM (inactive),3.84 µM (inactive),3.93 µM (inactive),6.9 µM (inactive),14 µM (inactive),4.8 µM (inactive),3.55 µM (inactive),10.8 µM (inactive),10.7 µM (inactive),10.9 µM (inactive),10.6 µM (inactive),10 µM (inactive),5.18 µM (inactive),3.66 µM (inactive)
c1ccc(CSC2(SCc3ccccc3)CCCCC2)cc1,> 10 µM (inactive),> 10 µM (inactive),> 10 µM (inactive),> 10,> 10 µM (inactive),> 10 µM (inactive),> 10 µM (inactive),> 10 µM (inactive),> 10 µM (inactive),> 10 µM (inactive),> 10 µM (inactive),> 10 µM (inactive),> 10 µM (inactive),> 10 µM (inactive),> 10 µM (inactive),> 10 µM (inactive),> 10 µM (inactive),> 10 µM (inactive),> 10 µM (inactive)
C/C(=C/CC[C@](C)(OC1OC(CO)C(O)C(O)C1OC1OC(C)C(O)C(O)C1O)[C@H]1CC[C@]2(C)[C@@H]1CC[C@@H]1[C@@]3(C)CC[C@H](O)C(C)(C)[C@@H]3C[C@H](O)[C@]12C)CO (stereo partly drawn),> 100 µM (inactive),> 100 µM (inactive),> 100 µM (inactive),> 10,> 100 µM (inactive),> 100 µM (inactive),> 100 µM (inactive),> 100 µM (inactive),> 100 µM (inactive),> 100 µM (inactive),> 100 µM (inactive),> 100 µM (inactive),> 100 µM (inactive),> 100 µM (inactive),> 100 µM (inactive),> 100 µM (inactive),> 100 µM (inactive),> 100 µM (inactive),> 100 µM (inactive)
